Here are results for 1 compound from patent publication US20220062218A1, “COMPOSITIONS AND METHODS FOR TREATING DIABETES” (ENZYCHEM LIFESCIENCES, priority 2019, published 2022).

Entries after “also recorded” stand apart in the source; their conditions may differ.

For assay [1], the system named is INS-1 cells. Description: High glucose (HG)-induced intracellular ROS generation in INS-1 cells, flow cytometry with DCFH-DA. Format: cell-based, rat. The note with it: pre-treated with 50 or 100 μg/mL of PLAG for 1 h, then 30 mM HG for 48 h. Here is the method: Intracellular ROS generation also analyzed by flow cytometry using DCFH-DA dye. ROS generation was determined by analyzing changes in fluorescence intensity. INS-1 cells were pre-treated with 50 or 100 μg/mL of PLAG for 1 h, and then treated with 30 mM of HG for 48h. […] PLAG promotes GLUT2 endocytosis in HG-treated INS-1 cells (FIG. 10)
(§1) INS-1 rat insulinoma pancreas beta cells were cultured in RPMI-1640 medium (Welgene, Gyeongsangbuk-do, Republic of Korea) containing 10% fetal bovine serum (Tissue Culture Biologicals, Long Beach, Calif., USA), 50 μM β-mercaptoethanol, 100 units/mL penicillin, and 100 μg/mL streptomycin (Antibiotic-Antimycotic Solution, Welgene). The cells were grown in a humidified atmosphere with 5% CO2 at 37° C. Chemicals and reagents
Cells were collected by trypsinization and washed with ice-cold PBS. For cell apoptosis analyses, INS-1 cells were incubated with annexin V (BD Biosciences, Franklin Lakes, N.J., USA) for 10 min at room temperature, and stained with 7-AAD (BD Biosciences). For intracellular reactive oxygen species (ROS) analyses, cells were incubated with 2 μM of DCFH-DA (2′,7′-dichlorodihydrofluorescein diacetate, Invitrogen, Carlsbad, Calif., USA) for 30 min at 37° C. The analysis was performed using a BD FACS Verse flow cytometer (BD Biosciences).
Background: A flow cytometer gives signals particle by particle.

Assay [2] has as its system INS-1 cells. Nature of the assay: High glucose (HG)-induced cell apoptosis in INS-1 cells, flow cytometry. The class given is cell-based, rat. The conditions noted are these: pre-treated with 50 or 100 μg/mL of PLAG for 1 h, then 30 mM HG for 48 h. Here is the method:
Effect of PLAG on pancreatic beta cell protection was investigated after HG-treatment. HG-induced cell apoptosis was analyzed using flow cytometry. INS-1 cells were pre-treated with 50 or 100 μg/mL of PLAG for lh, and then treated with 30 mM of HG for 48h. When INS-1 cells were maintained in a high glucose conditions, there was a significant increase in cell apoptosis compared to control cells.
as §1
PLAG was obtained from Enzychem Lifesciences (Seoul, Republic of Korea). D-glucose was purchased from Sigma-Aldrich (St. Louis, Mo., USA). PLAG was dissolved in ethanol and the final working concentration was 0.1% (v/v). D-glucose was dissolved in cell culture medium.
Cells were collected by trypsinization and washed with ice-cold PBS. For cell apoptosis analyses, INS-1 cells were incubated with annexin V (BD Biosciences, Franklin Lakes, N.J., USA) for 10 min at room temperature, and stained with 7-AAD (BD Biosciences). […]

As for `CCCCC/C=C\C/C=C\CCCCCCCC(=O)OC(COC(C)=O)COC(=O)CCCCCCCCCCCCCCC` (racemic) [PLAG, 1-palmitoyl-2-linoleoyl-3-acetyl-rac-glycerol], the “HG-induced intracellular ROS generation” value in the assay on INS-1 cells [1] is “dose-dependently decreased”. The HG-induced cell apoptosis entry in the assay on INS-1 cells [2] is given as “a decreased rate of apoptosis was observed; also recorded: dose-dependently decreased”.
